# Data reported in patent US11534443B2, “Quinazoline compounds, preparation method, use, and pharmaceutical composition thereof” (INSTITUTE OF MATERIA MEDICA, CHINESE ACADEMY OF MEDICAL …, priority 2016, dated 2022).
# How the values were obtained:
# [1] = system: human lung cancer cell NCI-H460; assay: Tumor cell viability by MTT assay; format: cell-based
# Protocol: After 24 hours, 100 μL of fresh medium containing different concentrations of test compounds and the corresponding solvent control was added into each well to a final concentration of DMSO less than 0.2%. Six to nine concentration groups were set for each test compound, and three parallel wells were set for each group. The plate was incubated at 5% CO2, 37° C. for 96 hours. 20 μL of freshly prepared PBS solution containing 5 mg/mL MTT was added to each well. The supernatant was discarded after incubation for another 4 hours. 150 μL DMSO was added to each well to dissolve the MTT formazan precipitate. After being mixed by a micro-oscillator, the optical density (OD) was measured at the wavelength of 570 nm, and the tumor cells treated with DMSO were used as a control group.
# PI3Kα = PI3Kα (Homo sapiens (Human), UniProt P42336); assay: Biochemical evaluation of activity of PI3Kα (Kinase-Glo luminescence kinase assay); details: 25 μM ATP, 50 μM PIP2, 1 h at room temperature
# PI3Kα, sequence (P42336 whole entry): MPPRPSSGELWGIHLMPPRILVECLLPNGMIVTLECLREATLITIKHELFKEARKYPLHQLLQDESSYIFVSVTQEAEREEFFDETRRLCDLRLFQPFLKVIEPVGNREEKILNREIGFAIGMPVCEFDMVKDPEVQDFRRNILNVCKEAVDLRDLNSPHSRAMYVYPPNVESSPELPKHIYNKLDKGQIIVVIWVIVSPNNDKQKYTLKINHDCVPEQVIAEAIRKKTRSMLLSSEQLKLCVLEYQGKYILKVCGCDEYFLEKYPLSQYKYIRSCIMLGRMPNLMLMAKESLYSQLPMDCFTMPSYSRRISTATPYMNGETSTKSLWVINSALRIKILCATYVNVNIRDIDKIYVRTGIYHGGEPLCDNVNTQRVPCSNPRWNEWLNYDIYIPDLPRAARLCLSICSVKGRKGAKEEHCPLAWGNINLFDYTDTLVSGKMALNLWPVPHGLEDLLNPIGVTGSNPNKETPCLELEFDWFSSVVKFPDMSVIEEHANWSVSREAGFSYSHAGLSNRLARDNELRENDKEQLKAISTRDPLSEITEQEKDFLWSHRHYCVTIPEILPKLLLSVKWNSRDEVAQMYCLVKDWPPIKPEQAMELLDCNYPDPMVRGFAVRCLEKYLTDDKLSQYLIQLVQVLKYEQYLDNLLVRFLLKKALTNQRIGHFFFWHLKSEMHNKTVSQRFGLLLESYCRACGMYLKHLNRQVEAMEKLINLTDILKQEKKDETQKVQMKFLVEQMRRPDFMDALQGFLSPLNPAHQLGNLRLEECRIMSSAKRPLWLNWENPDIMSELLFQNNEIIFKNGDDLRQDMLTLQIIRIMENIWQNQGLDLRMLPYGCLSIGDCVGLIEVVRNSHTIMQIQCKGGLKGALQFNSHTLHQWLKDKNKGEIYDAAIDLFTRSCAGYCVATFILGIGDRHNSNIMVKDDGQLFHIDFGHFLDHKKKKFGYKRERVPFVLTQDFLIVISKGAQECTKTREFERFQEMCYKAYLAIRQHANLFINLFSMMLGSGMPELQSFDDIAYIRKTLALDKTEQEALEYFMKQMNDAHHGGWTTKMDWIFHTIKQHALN
# PI3Kα, sequence (P27986 whole entry partner): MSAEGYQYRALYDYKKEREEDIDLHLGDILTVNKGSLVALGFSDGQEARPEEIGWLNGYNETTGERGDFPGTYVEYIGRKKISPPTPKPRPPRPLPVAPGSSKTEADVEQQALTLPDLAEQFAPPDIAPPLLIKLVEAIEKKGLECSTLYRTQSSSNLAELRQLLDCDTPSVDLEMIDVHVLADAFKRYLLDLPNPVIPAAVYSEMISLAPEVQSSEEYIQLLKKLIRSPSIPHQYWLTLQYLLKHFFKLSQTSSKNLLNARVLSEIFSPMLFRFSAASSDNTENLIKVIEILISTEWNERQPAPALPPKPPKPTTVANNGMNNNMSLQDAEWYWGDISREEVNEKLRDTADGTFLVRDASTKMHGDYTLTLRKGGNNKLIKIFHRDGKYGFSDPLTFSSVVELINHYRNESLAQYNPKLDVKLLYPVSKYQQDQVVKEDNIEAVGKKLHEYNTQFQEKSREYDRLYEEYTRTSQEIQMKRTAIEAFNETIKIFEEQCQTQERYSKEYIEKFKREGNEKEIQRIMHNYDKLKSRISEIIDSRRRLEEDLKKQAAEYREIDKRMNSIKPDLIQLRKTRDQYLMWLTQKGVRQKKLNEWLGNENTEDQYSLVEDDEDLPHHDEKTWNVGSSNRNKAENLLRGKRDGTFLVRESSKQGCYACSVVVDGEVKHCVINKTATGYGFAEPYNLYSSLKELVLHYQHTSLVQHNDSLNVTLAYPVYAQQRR
# Protocol: The potency of compounds in the present intention against PI3Kα was assessed by in vitro kinase assay. The kinase activity of PI3Kα was determined by detecting the level of ADP produced in the kinase reaction with luciferase-based luminescence detection.
# The Kinase-Glo™ Kinase Assay Kit was purchased from Promega. All assays were performed at room temperature using white OptiPlate™-384 well plate. The PI3Kα kinase was purchased from Invitrogen. The substrate was PIP2 from Invitrogen. The kinase buffer contained 50 mM Hepes (pH 7.5), 3 mM MgCl2, 100 mM NaCl, 1 mM EGTA, 0.03% CHAPS and 2 mM DTT. […] The substrate solution contained 100 μM PIP2 and 50 μM ATP. The test compound was diluted to 10 mM in 100% DMSO and serially diluted three times into ten different concentrations in 100% DMSO. The compound diluted in 100% DMSO was diluted 25-fold in 1×kinase buffer. 2.5 μL of the diluted compound solution and 2.5 μL PI3Kα kinase solution were added to each well of a 384-well plate. The reaction was initiated by addition of 5 μL substrate solution to each well. […] The plate was then covered and the reaction was allowed to proceed for one hour at room temperature, followed by the addition of 10 μL Kinase-Glo™ reagent to each well to stop the reaction.
# The percentage of inhibition was calculated as follows: Inhibition %=100−(max−sample RLU)/(max−min)*100
# wherein sample RLU was the luminescence reading for a given compound concentration, min was the reading of DMSO control, and max was the reading of the enzyme-free control. The IC50 value was calculated with the XLfit program in Excel.
SMILES,"IC50 ([1]; Homo sapiens, NCI-H460, 96 h)",IC50 (PI3Kα),IC50 ([1]; 96 hours)
"COc1ncc(-c2cc(O[C@H]3CC[C@H](OC)CC3)c3nc(N)nc(C)c3c2)cc1NS(=O)(=O)c1ccc(F)cc1F (single isomer, unassigned) [Example 18-1, N-(5-(2-amino-8-((4-methoxycyclohexyl)oxy)-4-methylquinazolin-6-yl)-2-methoxypyridin-3-yl)-2,4-difluorobenzenesulfonamide]",30 nM,1.1 nM,
"COc1ncc(-c2cc(O[C@H]3CC[C@H](OC)CC3)c3nc(N)nc(C)c3c2)cc1NS(=O)(=O)c1ccc(F)cc1F (single isomer, unassigned) [Example 18-2, N-(5-(2-amino-8-((4-methoxycyclohexyl)oxy)-4-methylquinazolin-6-yl)-2-methoxypyridin-3-yl)-2,4-difluorobenzenesulfonamide]",,0.8 nM,57 nM
"COc1ncc(-c2cc(O[C@@H]3CCOC3)c3nc(N)nc(C)c3c2)cc1NS(C)(=O)=O [Example 10, (R)—N-(5-(2-amino-4-methyl-8-((tetrahydrofuran-3-yl)oxy)quinazolin-6-yl)-2-methoxypyridin-3-yl)methanesulfonamide]",2200 nM,3.8 nM,
"COc1ncc(-c2cc(O[C@H]3CCOC3)c3nc(N)nc(C)c3c2)cc1NS(C)(=O)=O [Example 12, (S)—N-(5-(2-amino-4-methyl-8-((tetrahydrofuran-3-yl)oxy)quinazolin-6-yl)-2-methoxypyridin-3-yl)methanesulfonamide]",2300 nM,4.5 nM,
"COc1ncc(-c2cc(OCC3CCOCC3)c3nc(N)nc(C)c3c2)cc1NS(C)(=O)=O [Example 14, N-(5-(2-amino-4-methyl-8-((tetrahydro-2H-pyran-4-yl)methoxy)quinazolin-6-yl)-2-methoxypyridin-3-yl)methanesulfonamide]",2000 nM,3.3 nM,
"COc1ncc(-c2cc(OCC3CCCO3)c3nc(N)nc(C)c3c2)cc1NS(=O)(=O)c1ccc(F)cc1F (stereo not shown) [Example 20, N-(5-(2-amino-4-methyl-8-((tetrahydrofuran-2-yl)methoxy)quinazolin-6-yl)-2-methoxypyridin-3-yl)-2,4-difluorobenzenesulfonamide]",,1.3 nM,
"COc1ncc(-c2cc(OCC3CCOC3)c3nc(N)nc(C)c3c2)cc1NS(=O)(=O)c1ccc(F)cc1F (stereo not shown) [Example 21, N-(5-(2-amino-4-methyl-8-((tetrahydrofuran-3-yl)methoxy)quinazolin-6-yl)-2-methoxypyridin-3-yl)-2,4-difluorobenzenesulfonamide]",,1 nM,
"COc1ncc(-c2cc(OC3CCC3)c3nc(N)nc(C)c3c2)cc1NS(=O)(=O)c1ccc(F)cc1F [Example 24, N-(5-(2-amino-8-cyclobutoxy-4-methylquinazolin-6-yl)-2-methoxypyridin-3-yl)-2,4-difluorobenzenesulfonamide]",,0.8 nM,
"CNc1nc(C)c2cc(-c3cnc(OC)c(NS(=O)(=O)c4ccc(F)cc4F)c3)cc(O[C@H]3CCOC3)c2n1 [Example 35, (S)—N-(2-methoxy-5-(4-methyl-2-(methylamino)-8-((tetrahydrofuran-3-yl)oxy)quinazolin-6-yl)pyridin-3-yl)-2,4-difluorobenzenesulfonamide]",,1.8 nM,
"CNc1nc(C)c2cc(-c3cnc(OC)c(NS(=O)(=O)c4ccc(F)cc4F)c3)cc(OC3CCCC3)c2n1 [Example 40, N-(5-(8-(cyclopentyloxy)-4-methyl-2-(methylamino)quinazolin-6-yl)-2-methoxypyridin-3-yl)-2,4-difluorobenzenesulfonamide]",,8.5 nM,
"CNc1nc(C)c2cc(-c3cnc(OC)c(NS(=O)(=O)c4ccc(F)cc4F)c3)cc(OC3CCC3)c2n1 [Example 41, N-(5-(8-cyclobutoxy-4-methyl-2-(methylamino)quinazolin-6-yl)-2-methoxypyridin-3-yl)-2,4-difluorobenzenesulfonamide]",,5 nM,
"COc1ncc(-c2cc(OCCN3CCOCC3)c3ncnc(C)c3c2)cc1NS(=O)(=O)c1ccc(F)cc1F [Example 65, N-(2-methoxy-5-(4-methyl-8-(2-morpholinoethoxy)quinazolin-6-yl)pyridin-3-yl)-2,4-difluorobenzenesulfonamide]",630 nM,,

# Further lines, results first:
"IC50 ([1]; Homo sapiens, NCI-H460, 96 h)",IC50 (PI3Kα),IC50 ([1]; 96 hours),SMILES
17 nM,0.72 nM,,"COc1ncc(-c2cc(OC3CCOCC3)c3nc(N)nc(C)c3c2)cc1NS(=O)(=O)c1ccc(F)cc1Cl [Example 2, N-(5-(2-amino-4-methyl-8-((tetrahydro-2H-pyran-4-yl)oxy)quinazolin-6-yl)-2-methoxypyridin-3-yl)-2-chloro-4-fluorobenzenesulfonamide]"
96 nM,,,"COc1ncc(-c2cc(OC3CCOCC3)c3nc(N)nc(C)c3c2)cc1NS(=O)(=O)c1ccc(F)cc1 [Example 3, N-(5-(2-amino-4-methyl-8-((tetrahydro-2H-pyran-4-yl)oxy)quinazolin-6-yl)-2-methoxypyridin-3-yl)-4-fluorobenzenesulfonamide]"
,0.74 nM,,"COc1ncc(-c2cc(OC3CCOCC3)c3nc(N)nc(C)c3c2)cc1NS(=O)(=O)c1ccc(Cl)s1 [Example 4, N-(5-(2-amino-4-methyl-8-((tetrahydro-2H-pyran-4-yl)oxy)quinazolin-6-yl)-2-methoxypyridin-3-yl)-5-chlorothiophene-2-sulfonamide]"
860 nM,2.7 nM,,"COc1ncc(-c2cc(OC3CCOCC3)c3nc(N)nc(C)c3c2)cc1NS(C)(=O)=O [Example 5, N-(5-(2-amino-4-methyl-8-((tetrahydro-2H-pyran-4-yl)oxy)quinazolin-6-yl)-2-methoxypyridin-3-yl)methanesulfonamide]"
930 nM,2.3 nM,,"COc1ncc(-c2cc(OC3CCOCC3)c3nc(N)nc(C)c3c2)cc1NS(=O)(=O)C1CC1 [Example 6, N-(5-(2-amino-4-methyl-8-((tetrahydro-2H-pyran-4-yl)oxy)quinazolin-6-yl)-2-methoxypyridin-3-yl)cyclopropanesulfonamide]"
2100 nM,1.1 nM,,"Cc1ncc(-c2cc(OC3CCOCC3)c3nc(N)nc(C)c3c2)cc1NS(=O)(=O)c1ccc(F)cc1F [Example 7, N-(5-(2-amino-4-methyl-8-((tetrahydro-2H-pyran-4-yl)oxy)quinazolin-6-yl)-2-methylpyridin-3-yl)-2,4-difluorobenzenesulfonamide]"
1200 nM,1 nM,,"Cc1nc(N)nc2c(OC3CCOCC3)cc(-c3cnc(Cl)c(NS(=O)(=O)c4ccc(F)cc4)c3)cc12 [Example 8, N-(5-(2-amino-4-methyl-8-((tetrahydro-2H-pyran-4-yl)oxy)quinazolin-6-yl)-2-chloropyridin-3-yl)-4-fluorobenzenesulfonamide]"
94 nM,0.94 nM,,"COc1ncc(-c2cc(O[C@H]3CCOC3)c3nc(N)nc(C)c3c2)cc1NS(=O)(=O)c1ccc(F)cc1F [Example 11, (S)—N-(5-(2-amino-4-methyl-8-((tetrahydrofuran-3-yl)oxy)quinazolin-6-yl)-2-methoxypyridin-3-yl)-2,4-difluorobenzenesulfonamide]"
21 nM,0.84 nM,,"COc1ncc(-c2cc(OCC3CCOCC3)c3nc(N)nc(C)c3c2)cc1NS(=O)(=O)c1ccc(F)cc1F [Example 13, N-(5-(2-amino-4-methyl-8-((tetrahydro-2H-pyran-4-yl)methoxy)quinazolin-6-yl)-2-methoxypyridin-3-yl)-2,4-difluorobenzenesulfonamide]"
660 nM,5.5 nM,,"COc1ncc(-c2cc(OC3CCN(C)CC3)c3nc(N)nc(C)c3c2)cc1NS(=O)(=O)c1ccc(F)cc1F [Example 15, N-(5-(2-amino-4-methyl-8-((1-methylpiperidin-4-yl)oxy)quinazolin-6-yl)-2-methoxypyridin-3-yl)-2,4-difluorobenzenesulfonamide]"
,1 nM,,"COc1ncc(-c2cc(OC3CCOC(C)(C)C3)c3nc(N)nc(C)c3c2)cc1NS(=O)(=O)c1ccc(F)cc1F (stereo not shown) [Example 19, N-(5-(2-amino-8-((2,2-dimethyltetrahydro-2H-pyran-4-yl)oxy)-4-methylquinazolin-6-yl)-2-methoxypyridin-3-yl)-2,4-difluorobenzenesulfonamide]"
,1.1 nM,,"COc1ncc(-c2cc(OC3CCCC3)c3nc(N)nc(C)c3c2)cc1NS(=O)(=O)c1ccc(F)cc1F [Example 23, N-(5-(2-amino-8-(cyclopentyloxy)-4-methylquinazolin-6-yl)-2-methoxypyridin-3-yl)-2,4-difluorobenzenesulfonamide]"
